Results as given in patent publication US11826373B2, “Methods for treatment of diseases” (Galera Labs, LLC, priority 2011, dated 2023).
Where two headings read alike, the source gives them in different places.

Tests used:
healthy subjects = assay: Human Phase 1 single rising dose safety and tolerability of GC4419; assay type: in vivo
Experimental: A human clinical trial entitled, “A Double-Blind, Placebo-Controlled, Single Rising Dose Study to Evaluate the Safety and Tolerability and Determine the Pharmacokinetics of M40419 Administered as a I5-Minute Intravenous Infusion in Healthy Subjects,” was conducted on 54 subjects. This was a single center, randomized, placebo-controlled, sequential panel, single dose safety, tolerability, and pharmacokinetic study of GC4419 administered as a 75-mL IV infusion over 15 minutes in escalating doses of 10 mg, 15 mg, 22 mg, 33 mg, 50 mg, 75 mg, and 112 mg. The study consisted of two phases: the first phase was a dose escalation with six subjects (four active and two placebo) in each cohort to determine a Maximum Tolerated Dose (MTD); the second phase was a repeat of the MTD dose in 12 subjects (eight active drug and four placebo) to confirm the MTD or safety of highest dose tested. The study population was comprised of 54 healthy male and female subjects (36 males, 18 females) between the ages of 18 and 50 years considered eligible on the basis of inclusion and exclusion criteria. There were four active and two placebo subjects for each dose level in the escalating dose phase of the study, and eight active and four placebo subjects for the confirmation of MTD phase.
All subjects receiving a dose of study medication were evaluated for safety. The safety of the drug product was assessed based on: treatment-emergent adverse events (TEAEs), clinical laboratory evaluations, vital signs, 12-lead electrocardiograms (ECGs) and standard ECG parameters including PR, QRS, QT, and QTc intervals.

[1] = Human Phase 1 pharmacokinetics of GC4403; assay type: in vivo; settings: both sexes, plasma; for AUC(0-t): read-out: AUC0-24 h
Experimental: In a Phase 1 randomized, double-blind, placebo-controlled single rising dose safety, tolerability and pharmacokinetics study, 54 healthy male and female subjects were dosed from 2.2 to 25 mg of GC4403 administered intravenously over 30 minutes. Disposition of GC4403 is multi-exponential and follows linear pharmacokinetics with generally proportional increases in AUC and Cmax with increasing dose over the dose ranges studied. […] GC4403 is excreted unchanged in the urine and accounts for approximately 9 to 17% of the dose administered. No significant cardiovascular or vital sign effects, no significant physical examination abnormalities, and no significant abnormalities in routine clinical laboratory assessments were observed. Facial tingling, generalized tingling, paraesthesias and facial warmth were reported in a dose responsive manner, occurring at the 16.7 and 25 mg GC4403 doses.
As part of the conduct of the Phase 1a clinical studies for GC4403 and GC4419 described in the Examples herein, plasma samples were collected for measuring the concentration of parent compounds (GC4403 and GC4419) after intravenous infusion. Table 3 illustrates the pharmacokinetic parameter, area under the curve (AUC), representing the total exposure of the subject to the drugs over time.

[2] = single intravenous infusion over 15 minutes, healthy subjects

Row | SMILES | subjects who experienced at least one TEAE (healthy subjects; 30 of 36 subjects who received trial material, 10-112 mg) | tolerability of single doses up to 112 mg (healthy subjects; healthy subjects) | tolerability of single intravenous doses from 10 mg to 50 mg (healthy subjects; healthy subjects) | MTD initially defined in the dose escalation phase (healthy subjects; [2]) | maximum tolerated dose (MTD), final (healthy subjects; [2]) | AUC(0-t) ([1]; 2.2 mg IV over 30 minutes) | AUC(0-t) ([1]; 3.3 mg IV over 30 minutes) | AUC(0-t) ([1]; 4.9 mg IV over 30 minutes) | AUC(0-t) ([1]; 7.4 mg IV over 30 minutes) | AUC(0-t) ([1]; 11.1 mg IV over 30 minutes) | AUC(0-t) ([1]; 16.7 mg IV over 30 minutes) | AUC(0-t) ([1]; 25 mg IV over 30 minutes) | half-life ([1]; IV over 30 minutes, read-out: terminal elimination half-life (converted))
1 | [Cl][Mn-5]1234([Cl])[n+]5c6cccc5C[NH+]1[C@H]1CCCC[C@@H]1[NH+]2CC[NH+]3[C@H]1CCCC[C@@H]1[NH+]4C6 (stereo partly shown) [GC4419] | 83.3% | no serious adverse events | safe and well tolerated with no adverse events | 75 mg | 50 mg | – | – | – | – | – | – | – | –
2 | [Cl][Mn-5]1234([Cl])[n+]5c6cccc5C[NH+]1[C@@H]1CCCC[C@H]1[NH+]2CC[NH+]3[C@@H]1CCCC[C@H]1[NH+]4C6 (stereo partly shown) [GC4403] | – | – | – | – | – | 184 ng·h/mL | 310 ng·h/mL | 453 ng·h/mL | 595 ng·h/mL | 1050 ng·h/mL | 1510 ng·h/mL | 2560 ng·h/mL | ~1.5 h
